Source: patent publication US20230321012A1 (priority 2021, published 2023)
“Also recorded” adds a separate entry of the source.

How the values were obtained:
[1] = Clinical safety and tolerability, dose-limiting toxicities (NCT03536728); assay type: in vivo
Excerpt: Clinical Trial Outline. […] All solid tumor types are eligible for the trial. […] DFMO was delivered orally twice daily in gel capsules.
These DLTs involved vomiting, diarrhea and nausea, and inferred a potential dual drug targeting of the gastrointestinal (GI) tract in these patients. One patient experienced severe dehydration, requiring hospitalization. A similar observation was made in dogs in Aminex's 28-day toxicological testing. […] The clinical observations and the data obtained in dog studies, together, support the hypothesis that combined oral drug dosing levels and DFMO targeting of the GI tract are causing the intolerance.
In cohorts before Part 2, Cohort 4, 14 adults were treated at 1,200 mg or higher of AMXT 1501 daily, either once daily or BID, with no DLTs. A total of 18 patients were treated at 800 mg AMXT 1501 or higher daily with no DLTs. These patients included a couple of adult patients where Cmax values above 1,000 ng/mL AMXT 1501 plasma levels were observed, again with no DLTs observed.

[2] = Water solubility, bioavailability and Biopharmaceutics Classification System class; assay type: physicochemical; conditions: oral
Excerpt: Interim data for the pharmacokinetic (PK) behavior of both agents in human subjects has been generated.

CCCCCCCCCCCCCCCC(=O)NCCCC[C@@H](N)C(=O)NCCCNCCCCNCCCN [AMXT 1501 dicaprate]
clinical tolerability ([1]; oral 1,200 mg AMXT 1501 dicaprate alone, once daily or split BID): well tolerated clinically; also recorded: well-tolerated clinically
GI adverse effects on changing from once daily to twice daily (BID) delivery ([1]; patients, similar dose levels): greatly reduced; also recorded: substantially minimized
bioavailability [2]: low bioavailability
